Results: PMC9841532, “Exploring the Effect of Halogenation in a Series of Potent and Selective A2B Adenosine Receptor Antagonists” (Journal of Medicinal Chemistry, 2022)
Read-outs that look alike come from different tables or passages of the source.

How the values were obtained:
hA3AR = target: T1, hA3AR (Homo sapiens, UniProt P0DMS8); assay: Radioligand binding competition, [3H]NECA, membranes from HeLa-A3 cells; conditions: 1 μM, [3H]NECA, human HeLa cells, n = 2
T1 construct: expressed in transfected cells; host or cells: HeLa (HeLa-A3) cell membranes
T1 sequence (P0DMS8 1-318): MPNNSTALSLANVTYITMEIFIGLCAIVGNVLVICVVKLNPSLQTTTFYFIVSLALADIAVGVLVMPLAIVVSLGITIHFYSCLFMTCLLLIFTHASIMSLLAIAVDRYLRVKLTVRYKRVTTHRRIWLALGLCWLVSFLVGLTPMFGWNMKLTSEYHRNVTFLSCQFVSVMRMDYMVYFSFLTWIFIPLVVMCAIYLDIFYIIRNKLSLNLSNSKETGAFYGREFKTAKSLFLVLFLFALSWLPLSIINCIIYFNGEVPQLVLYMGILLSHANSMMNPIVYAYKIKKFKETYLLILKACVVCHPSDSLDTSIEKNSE
Protocol: (§1) All ligands reported in Tables 1–5 were obtained and tested as racemic mixtures. The whole set was evaluated in silico with a combination of a Rdkit[37] PAINS filter and Instant JChem from Chemaxon (https://www.chemaxon.com), to rule out the possibility that these ligands can be promiscuous pan-assay interference compounds (PAINS) and to assess their bioavailability, respectively. […] The stereoisomers of selected compounds were obtained by chiral resolution and tested at the four human AR subtypes in their enantiopure forms (Table 6).
(§2) A brief description is given below. […] Non-specific binding was determined in the presence of 10 μM R-PIA. The reaction mixture was incubated at 25 °C for 60 min. […] The reaction mixture was incubated at 25 °C for 30 min. […] The reaction mixture was incubated at 25 °C for 30 min. […] Non-specific binding was determined in the presence of 100 μM R-PIA. […] After the incubation time, membranes were washed and filtered and radioactivity was detected in a MicroBeta TriLux reader (PerkinElmer).

hA2BAR = target: T2, hA2BAR (Homo sapiens, UniProt P29275); assay: Radioligand binding competition, [3H]DPCPX, membranes from HEK-293-A2B cells; parameters: Exp. dG: unit not given here; conditions: for % at 1 μM hA2B (percentage displacement of specific binding): [3H]DPCPX, human HEK-293 cells, n = 2; for Exp. dG: experimental binding free energy, Supplementary Table S3, unit not given (errors in kcal/mol)
T2 construct: host or cells: HEK-293 (HEK-293-A2B) cell membranes
T2 sequence (P29275 1-332): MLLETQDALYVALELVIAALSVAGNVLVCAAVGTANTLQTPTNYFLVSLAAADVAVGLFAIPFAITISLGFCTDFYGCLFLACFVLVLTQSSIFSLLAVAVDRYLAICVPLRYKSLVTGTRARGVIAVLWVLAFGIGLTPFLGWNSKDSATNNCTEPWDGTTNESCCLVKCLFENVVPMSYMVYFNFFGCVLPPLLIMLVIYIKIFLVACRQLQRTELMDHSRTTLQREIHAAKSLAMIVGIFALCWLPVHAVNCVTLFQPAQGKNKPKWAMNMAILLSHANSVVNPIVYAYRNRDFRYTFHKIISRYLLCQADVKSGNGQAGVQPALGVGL
Protocol: as §1, §2

hA2AAR = target: T3, hA2AAR (Homo sapiens, UniProt P29274); assay: Radioligand binding competition, [3H]ZM241385, membranes from HeLa-A2A cells; conditions: 1 μM, [3H]ZM241385, human HeLa cells, n = 2
T3 construct: expressed in transfected cells; host or cells: HeLa (HeLa-A2A) cell membranes
Protocol: as §1, §2

hA1AR = target: T4, hA1AR (Homo sapiens, UniProt P30542); assay: Radioligand binding competition, [3H]DPCPX, membranes from CHO-A1 cells; conditions: 1 μM, [3H]DPCPX, human CHO cells, n = 2
T4 sequence (P30542 1-326): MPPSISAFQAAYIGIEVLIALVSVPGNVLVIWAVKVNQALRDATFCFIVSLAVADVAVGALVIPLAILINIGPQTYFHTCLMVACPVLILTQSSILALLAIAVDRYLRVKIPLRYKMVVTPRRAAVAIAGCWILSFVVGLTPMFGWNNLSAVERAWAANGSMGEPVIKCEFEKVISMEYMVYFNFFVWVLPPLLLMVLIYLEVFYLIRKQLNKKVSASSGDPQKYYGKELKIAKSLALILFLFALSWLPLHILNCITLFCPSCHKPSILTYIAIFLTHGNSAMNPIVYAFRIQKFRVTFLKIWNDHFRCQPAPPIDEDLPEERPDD
Protocol: as §1, §2

[1] = displacement of specific [3H]DPCPX binding in human HEK-293 cells, n = 3, read-out: Ki hA2B

T3 sequence (P29274 whole entry): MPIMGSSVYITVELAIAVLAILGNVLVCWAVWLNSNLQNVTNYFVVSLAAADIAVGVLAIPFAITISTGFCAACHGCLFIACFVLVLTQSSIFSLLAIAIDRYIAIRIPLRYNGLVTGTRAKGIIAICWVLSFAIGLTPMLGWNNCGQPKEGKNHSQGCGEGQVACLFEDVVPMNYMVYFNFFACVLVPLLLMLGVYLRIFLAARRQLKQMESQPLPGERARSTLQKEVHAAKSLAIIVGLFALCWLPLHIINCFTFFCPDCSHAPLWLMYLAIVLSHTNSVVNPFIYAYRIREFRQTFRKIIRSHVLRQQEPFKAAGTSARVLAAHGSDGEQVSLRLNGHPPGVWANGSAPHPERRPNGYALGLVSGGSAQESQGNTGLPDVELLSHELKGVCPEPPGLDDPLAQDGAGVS

Compound | % at 1 μM hA3 (percentage displacement of specific binding) (hA3AR) [%] | % at 1 μM hA2B (percentage displacement of specific binding) (hA2BAR) [%] | % at 1 μM hA2A (percentage displacement of specific binding) (hA2AAR) [%] | % at 1 μM hA1 (percentage displacement of specific binding) (hA1AR) [%] | Ki (hA2BAR; [1]) [nM] | Ki (hA2BAR; read-out: Ki hA2B) [nM] | Exp. dG (hA2BAR) | Ki (hA2BAR; supplementary CSV, no unit printed (nM in Tables 2-5), read-out: Ki_hA2B) [nM] | Ki hA2B (hA2BAR; displacement of specific [3H]DPCPX binding in human HEK-293 cells, n = 3)
CC1=C(C(=O)OC(C)C)C(c2cccs2)n2c(nc3cc(F)c(F)cc32)N1 (stereo not shown) [14f] | 10 | 1 | 1 | 1 | – | – | – | – | –
CC1=C(C(=O)OC(C)C)[C@H](c2ccco2)n2c(nc3cc(Br)ccc32)N1 [(R)-16r] | 2 | 35 | 7 | 12 | – | – | – | – | –
CCOC(=O)C1=C(C)Nc2nc3cc(Cl)c(Cl)cc3n2C1c1ccsc1 (stereo not shown) [14o] | 1 | 9 | 1 | 5 | – | – | – | – | –
CC1=C(C(=O)OC(C)C)C(c2ccsc2)n2c(nc3cc(Cl)c(Cl)cc32)N1 (stereo not shown) [14p] | 6 | – | 1 | 2 | 359 ± 4 | – | – | – | –
CC1=C(C(=O)OC(C)C)[C@@H](c2ccco2)n2c(nc3ccccc32)N1 [(S)-ISAM-140] | 4 | – | 12 | 2 | 0.89 ± 0.2 | – | – | – | sub-nanomolar
CCOC(=O)C1=C(C)Nc2nc3cc(Br)c(Br)cc3n2C1c1ccco1 (stereo not shown) [14q] | 2 | 37 | 17 | 1 | – | – | – | – | –
CC1=C(C(=O)OC(C)C)[C@H](c2ccoc2)n2c(nc3cc(Cl)ccc32)N1 [(S)-16l] | 19 | 53 | 25 | 24 | – | – | – | – | –
CCOC(=O)C1=C(C)Nc2nc3cc(Br)ccc3n2[C@H]1c1ccoc1 [(S)-16s] | 10 | 34 | 16 | 11 | – | – | – | – | –
CCOC(=O)C1=C(C)Nc2nc3cc(Br)c(Br)cc3n2C1c1ccoc1 (stereo not shown) [14s] | 10 | 7 | 2 | 2 | – | – | – | – | –
CCOC(=O)C1=C(C)Nc2nc3cc(Cl)c(Cl)cc3n2C1c1cccs1 (stereo not shown) [14m] | 11 | 9 | 1 | 2 | – | – | – | – | –
CC1=C(C(=O)OC(C)C)[C@@H](c2ccco2)n2c(nc3cc(Cl)ccc32)N1 [(S)-16j] | 6 | – | 19 | 48 | 2.04 ± 0.2 | – | – | – | –
CCOC(=O)C1=C(C)Nc2nc3cc(F)c(F)cc3n2C1c1ccco1 (stereo not shown) [14a] | 2 | – | 2 | 1 | 44.1 ± 1.7 | – | – | – | –

Other lines, results leading:

% at 1 μM hA3 (percentage displacement of specific binding) (hA3AR) [%] | % at 1 μM hA2B (percentage displacement of specific binding) (hA2BAR) [%] | % at 1 μM hA2A (percentage displacement of specific binding) (hA2AAR) [%] | % at 1 μM hA1 (percentage displacement of specific binding) (hA1AR) [%] | Ki (hA2BAR; [1]) [nM] | Ki (hA2BAR; read-out: Ki hA2B) [nM] | Exp. dG (hA2BAR) | Ki (hA2BAR; supplementary CSV, no unit printed (nM in Tables 2-5), read-out: Ki_hA2B) [nM] | Ki hA2B (hA2BAR; displacement of specific [3H]DPCPX binding in human HEK-293 cells, n = 3) | Compound
3 | 50 | 4 | 6 | – | – | – | – | – | CC1=C(C(=O)OC(C)C)C(c2ccoc2)n2c(nc3ccc(Cl)cc32)N1 (stereo not shown) [15l]
19 | – | 1 | 10 | 318 ± 6 | ~45 | – | – | – | CCOC(=O)C1=C(C)Nc2nc3ccc(Br)cc3n2C1c1ccoc1 (stereo not shown) [15s]
1 | – | 1 | 1 | 764 ± 11 | – | -8.34 | – | – | CC1=C(C(=O)OC(C)C)C(c2ccsc2)n2c(nc3ccc(F)cc32)N1 (stereo not shown) [15h]
1 | – | 9 | 1 | 537 ± 8 | – | – | – | – | CCOC(=O)C1=C(C)Nc2nc3cc(Br)ccc3n2C1c1ccsc1 (stereo not shown) [16w]
23 | – | 35 | 23 | 6.4 ± 0.7 | < 10 | -11.17 | – | – | CC1=C(C(=O)OC(C)C)C(c2cocn2)n2c(nc3cc(Cl)ccc32)N1 (stereo not shown) [18d]
8 | 11 | 6 | 1 | – | – | – | – | – | CC1=C(C(=O)OC(C)C)C(c2cccs2)n2c(nc3ccc(Br)cc32)N1 (stereo not shown) [15v]
1 | – | 1 | 1 | 115 ± 3 | – | – | 115 | – | CC1=C(C(=O)OC(C)C)C(c2cccs2)n2c(nc3cc(Br)ccc32)N1 (stereo not shown) [16v]
2 | – | 29 | 10 | 6.6 ± 1 | < 10 | -11.15 | – | – | CCOC(=O)C1=C(C)Nc2nc3cc(F)ccc3n2C1c1ccco1 (stereo not shown) [16a]
1 | 10 | 1 | 1 | – | – | – | – | – | CC1=C(C(=O)OC(C)C)C(c2ccsc2)n2c(nc3ccc(Br)cc32)N1 (stereo not shown) [15x]
4 | – | 31 | 14 | 8.6 ± 0.5 | < 10 | -11 | – | – | CC1=C(C(=O)OC(C)C)C(c2ccoc2)n2c(nc3cc(F)ccc32)N1 (stereo not shown) [16d]
4 | 1 | 5 | 1 | – | – | – | – | – | CCOC(=O)C1=C(C)Nc2nc3ccc(Br)cc3n2C1c1cccs1 (stereo not shown) [15u]
3 | – | 30 | 22 | 47.3 ± 1.9 | ~45 | -9.987 | – | – | CCOC(=O)C1=C(C)Nc2nc3ccc(Cl)cc3n2C1c1ccoc1 (stereo not shown) [15k]
11 | 37 | 1 | 25 | – | – | – | – | – | CCOC(=O)C1=C(C)Nc2nc3ccc(F)cc3n2C1c1cccs1 (stereo not shown) [15e]
